Test results as given in patent US20250213700A1, “COMPOUNDS, COMPOSITIONS, AND METHODS FOR CELL-SPECIFIC PHARMACOLOGY” (Duke University, priority 2022, published 2025).

Molecular target: T1, HTP in D1 cells of left dorsal striatum (Rhodococcus rhodochrous, UniProt P0A3G2, A155T/A167V/A172T/A224E/C128F/C176G/D78G/E160K/E257K/H272N/K175M/K195N/L47V/L88M/N227D/S58T/T264A/Y273L/Y87F)
T1 construct: SSnlg signal peptide (residues 1-49 of mouse neuroligin-1) (N); Thy1 GPI anchor signal (C); expressed in transfected cells; host or cells: mouse neurons transduced in vivo with AAV-DIO-+HTPGPI (D1-Cre dorsal striatum; PV::cre retinal ganglion cells)
T1 sequence (P0A3G2 other isoform, or with tags, fused parts or gaps with the stated changes): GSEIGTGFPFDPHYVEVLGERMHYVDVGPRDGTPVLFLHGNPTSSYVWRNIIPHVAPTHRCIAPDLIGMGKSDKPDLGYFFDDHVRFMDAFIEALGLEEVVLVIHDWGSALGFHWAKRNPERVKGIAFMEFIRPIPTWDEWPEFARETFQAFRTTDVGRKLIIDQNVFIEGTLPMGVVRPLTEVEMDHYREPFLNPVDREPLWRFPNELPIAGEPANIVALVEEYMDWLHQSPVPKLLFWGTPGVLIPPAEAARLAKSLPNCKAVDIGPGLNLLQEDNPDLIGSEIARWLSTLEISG
Assay: histology of tracer dye capture in dorsal striatum
Assay type: in vivo, mouse
Conditions: 3 µM dye+30 µM drug, histology 24 hr later
Experimental: FIG. 3A-3F show quantitative engagement of the DART.2 platform. (FIG. 3A) Mice with ^+HTP or ^ddHTP in D1 cells of left dorsal striatum. Open field (1 hr) before and after Alexa488.1^DART.2+YM90K.1^DART.2 (3 µM dye+30 µM drug, 1 μL in 10 min). Histology performed 24 hr later. Left, dTomato expression and Alexa488.1^DART.2 capture from a ^+HTP mouse. […] Right, open-field turning vs dye capture. […] Dye capture can be used as a behavior-independent inclusion criterion (shading), allowing exclusion of 4 ^+HTP mice in this dataset. (FIG. 3B) Older technology lacked tracer^DART. Here, an estimate of technical success with a non-DART dye (fluorogold) was attempted and a numerical algorithm dye-virus overlap was estimated. […] (FIG. 3C and FIG. 3D) Characterization in live mice expressing HTP in dSPNs of the left dorsal striatum. Alexa^DART.2 co-infused with YM90^KDART.2 ligand provided permanent marker of drug capture, tight correspondence between histology and behavioral potency, and 3-fold increase in behavioral potency in comparison to its predecessor. (FIG. 3E and FIG. 3F) YM90^KDART.1 in live mice for comparison with above.
Histology. […] Images were analyzed for pixel intensity using MATLAB.
These advances were combined in a mouse locomotor assay. […] Mice were perfused for histology 24 hrs later, and quantitative measurement of the integrated Alexa capture over the dorsal striatum was performed. […]

COc1cc(CCCCl)ccc1CCOCCNC(=O)c1ccc(CNC(=O)CCOCCOCCOCCOCCOCCOCCOCCOCCOCCOCCOCCOCCOCCOCCOCCOCCOCCOCCOCCOCCOCCOCCOCCOCCOCCOCCOCCOCCOCCOCCOCCOCCOCCOCCOCCOCCn2cc(CNC(=O)c3ccc(-c4c5ccc(=N)c(S(=O)(=O)O)c-5oc5c(S(=O)(=O)O)c(N)ccc45)c(C(=O)O)c3)nn2)cc1 [Alexa488.1^DART.2, 6-amino-9-(2-carboxy-4-(((1-(1-(4-((2-(4-(3-chloropropyl)-2-methoxyphenethoxy)ethyl)carbamoyl)phenyl)-3-oxo-6,9, 12, 15, 18, 21, 24, 27, 30, 33, 36, 39, 42, 45, 48, 51, 54, 57, 60, 63, 66, 69, 72, 75, 78, 81, 84, 87, 90, 93, 96, 99, 102, 105, 108, 111-hexatriacontaoxa-2-azatridecahectan-113-yl)-1H-1,2,3-triazol-4-yl)methyl)carbamoyl)phenyl)-3-iminio-5-sulfo-3H-xanthene-4-sulfonate]
dye capture, ddHTP mice: No dye capture detected
